# Test results from PubChem BioAssay (NCI).
#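 These data come from cells grown in 96-well plates and exposed to compound for 48 hours at five concentrations. GI50 marks 50% less growth. TGI: concentration producing complete growth inhibition.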
# What was measured:
# Test in all cases: NCI-60 cell line screen, 48 h
# MCF7 breast = tested on: MCF7 breast
# SN12C renal = tested on: SN12C renal
# ACHN renal = tested on: ACHN renal
# BT-549 breast = tested on: BT-549 breast
# RXF 393 renal = tested on: RXF 393 renal
# SK-MEL-5 melanoma = tested on: SK-MEL-5 melanoma
# K-562 leukemia = tested on: K-562 leukemia
# NCI-H460 lung = tested on: NCI-H460 lung
# PC-3 prostate = tested on: PC-3 prostate
# HCC-2998 colon = tested on: HCC-2998 colon
# DU-145 prostate = tested on: DU-145 prostate
# HT29 colon = tested on: HT29 colon
# SF-268 CNS = tested on: SF-268 CNS
# SF-539 CNS = tested on: SF-539 CNS
# OVCAR-4 ovarian = tested on: OVCAR-4 ovarian
# HOP-62 NSCLC = tested on: HOP-62 NSCLC
# MALME-3M melanoma = tested on: MALME-3M melanoma
# MOLT-4 leukemia = tested on: MOLT-4 leukemia
# HCT-15 colon = tested on: HCT-15 colon
# MDA-MB-435 = tested on: MDA-MB-435
# SF-295 CNS = tested on: SF-295 CNS
# NCI-H23 lung = tested on: NCI-H23 lung
# NCI/ADR-RES ovarian = tested on: NCI/ADR-RES ovarian
# UO-31 renal = tested on: UO-31 renal
# SR leukemia = tested on: SR leukemia
# M14 melanoma = tested on: M14 melanoma
# UACC-257 melanoma = tested on: UACC-257 melanoma
# HS 578T breast = tested on: HS 578T breast
# OVCAR-3 ovarian = tested on: OVCAR-3 ovarian
# SW-620 colon = tested on: SW-620 colon
# EKVX NSCLC = tested on: EKVX NSCLC
# HCT-116 colon = tested on: HCT-116 colon
# 786-0 renal = tested on: 786-0 renal
# OVCAR-8 ovarian = tested on: OVCAR-8 ovarian
# T-47D breast = tested on: T-47D breast
# SK-MEL-2 melanoma = tested on: SK-MEL-2 melanoma
# SNB-19 CNS = tested on: SNB-19 CNS
# LOX IMVI melanoma = tested on: LOX IMVI melanoma
# NCI-H522 lung = tested on: NCI-H522 lung
# HL-60(TB) leukemia = tested on: HL-60(TB) leukemia
# HOP-92 NSCLC = tested on: HOP-92 NSCLC
# SK-OV-3 ovarian = tested on: SK-OV-3 ovarian
# COLO 205 colon = tested on: COLO 205 colon
# CCRF-CEM leukemia = tested on: CCRF-CEM leukemia
# RPMI-8226 leukemia = tested on: RPMI-8226 leukemia
# NCI-H226 lung = tested on: NCI-H226 lung
# MDA-MB-231 breast = tested on: MDA-MB-231 breast
# OVCAR-5 ovarian = tested on: OVCAR-5 ovarian
# KM12 colon = tested on: KM12 colon
# IGROV1 ovarian = tested on: IGROV1 ovarian
# TK-10 renal = tested on: TK-10 renal
# A549 NSCLC = tested on: A549 NSCLC
# UACC-62 melanoma = tested on: UACC-62 melanoma
# SNB-75 CNS = tested on: SNB-75 CNS
# A498 renal = tested on: A498 renal
# SK-MEL-28 melanoma = tested on: SK-MEL-28 melanoma
# U251 CNS = tested on: U251 CNS
structure (smiles),measurement,setting,value
Cc1cc2c(C(C)C)c(O)c(O)c(/C=N/O)c2c(O)c1-c1c(C)cc2c(C(C)C)c(O)c(O)c(/C=N/O)c2c1O,GI50,MCF7 breast,2520 nM
same,TGI,MCF7 breast,12.2 µM
same,GI50,SN12C renal,4.34 µM
same,TGI,SN12C renal,18.5 µM
same,GI50,ACHN renal,2040 nM
same,TGI,ACHN renal,7.45 µM
same,GI50,BT-549 breast,2420 nM
same,TGI,BT-549 breast,13.8 µM
same,GI50,RXF 393 renal,1490 nM
same,TGI,RXF 393 renal,6.36 µM
same,GI50,SK-MEL-5 melanoma,1430 nM
same,TGI,SK-MEL-5 melanoma,3.82 µM
same,GI50,K-562 leukemia,2070 nM
same,TGI,K-562 leukemia,5.96 µM
same,GI50,NCI-H460 lung,2190 nM
same,TGI,NCI-H460 lung,6.72 µM
same,GI50,PC-3 prostate,2800 nM
same,TGI,PC-3 prostate,13.5 µM
same,GI50,HCC-2998 colon,2290 nM
same,TGI,HCC-2998 colon,6.88 µM
same,GI50,DU-145 prostate,2770 nM
same,TGI,DU-145 prostate,13.7 µM
same,GI50,HT29 colon,3.19 µM
same,TGI,HT29 colon,12.5 µM
same,GI50,SF-268 CNS,1540 nM
same,TGI,SF-268 CNS,11.4 µM
same,GI50,SF-539 CNS,1850 nM
same,TGI,SF-539 CNS,5.37 µM
same,GI50,OVCAR-4 ovarian,1330 nM
same,TGI,OVCAR-4 ovarian,9.69 µM
same,GI50,HOP-62 NSCLC,1950 nM
same,TGI,HOP-62 NSCLC,11.4 µM
same,GI50,MALME-3M melanoma,3.91 µM
same,TGI,MALME-3M melanoma,20.4 µM
same,GI50,MOLT-4 leukemia,2230 nM
same,TGI,MOLT-4 leukemia,7.64 µM
same,GI50,HCT-15 colon,2350 nM
same,TGI,HCT-15 colon,13.4 µM
same,GI50,MDA-MB-435,2780 nM
same,TGI,MDA-MB-435,12.1 µM
same,GI50,SF-295 CNS,2610 nM
same,TGI,SF-295 CNS,13.3 µM
same,GI50,NCI-H23 lung,1920 nM
same,TGI,NCI-H23 lung,5.74 µM
same,GI50,NCI/ADR-RES ovarian,3.4 µM
same,TGI,NCI/ADR-RES ovarian,15.1 µM
same,GI50,UO-31 renal,2240 nM
same,TGI,UO-31 renal,12.6 µM
same,GI50,SR leukemia,3.22 µM
same,TGI,SR leukemia,13.5 µM
same,GI50,M14 melanoma,2460 nM
same,TGI,M14 melanoma,10.1 µM
same,GI50,UACC-257 melanoma,2970 nM
same,TGI,UACC-257 melanoma,8.76 µM
same,GI50,HS 578T breast,2030 nM
same,TGI,HS 578T breast,27.4 µM
same,GI50,OVCAR-3 ovarian,1690 nM
same,TGI,OVCAR-3 ovarian,10.1 µM
same,GI50,SW-620 colon,2940 nM
same,TGI,SW-620 colon,12.3 µM
same,GI50,EKVX NSCLC,1940 nM
same,TGI,EKVX NSCLC,11.4 µM
same,GI50,HCT-116 colon,2410 nM
same,TGI,HCT-116 colon,12 µM
same,GI50,786-0 renal,3.22 µM
same,TGI,786-0 renal,13.3 µM
same,GI50,OVCAR-8 ovarian,2940 nM
same,TGI,OVCAR-8 ovarian,13.2 µM
same,GI50,T-47D breast,2000 nM
same,TGI,T-47D breast,8.42 µM
same,GI50,SK-MEL-2 melanoma,3.47 µM
same,TGI,SK-MEL-2 melanoma,13.8 µM
same,GI50,SNB-19 CNS,3.32 µM
same,TGI,SNB-19 CNS,23.5 µM
same,GI50,LOX IMVI melanoma,1530 nM
same,TGI,LOX IMVI melanoma,3.47 µM
same,GI50,NCI-H522 lung,1740 nM
same,TGI,NCI-H522 lung,5.47 µM
same,GI50,HL-60(TB) leukemia,2610 nM
same,TGI,HL-60(TB) leukemia,10.6 µM
same,GI50,HOP-92 NSCLC,2890 nM
same,TGI,HOP-92 NSCLC,13.5 µM
same,GI50,SK-OV-3 ovarian,3.6 µM
same,TGI,SK-OV-3 ovarian,11.9 µM
same,GI50,COLO 205 colon,2880 nM
same,TGI,COLO 205 colon,9.72 µM
same,GI50,CCRF-CEM leukemia,3.6 µM
same,TGI,CCRF-CEM leukemia,14.7 µM
same,GI50,RPMI-8226 leukemia,2440 nM
same,TGI,RPMI-8226 leukemia,15.4 µM
same,GI50,NCI-H226 lung,2870 nM
same,TGI,NCI-H226 lung,9.72 µM
same,GI50,MDA-MB-231 breast,3.5 µM
same,TGI,MDA-MB-231 breast,20.2 µM
same,GI50,OVCAR-5 ovarian,3.08 µM
same,TGI,OVCAR-5 ovarian,12.9 µM
same,GI50,KM12 colon,2360 nM
same,TGI,KM12 colon,8.52 µM
same,GI50,IGROV1 ovarian,3.54 µM
same,TGI,IGROV1 ovarian,16 µM
same,GI50,TK-10 renal,3.13 µM
same,TGI,TK-10 renal,13.7 µM
same,GI50,A549 NSCLC,2690 nM
same,TGI,A549 NSCLC,12.1 µM
same,GI50,UACC-62 melanoma,2150 nM
same,TGI,UACC-62 melanoma,5.23 µM
same,GI50,SNB-75 CNS,3.57 µM
same,TGI,SNB-75 CNS,17.4 µM
same,GI50,A498 renal,2540 nM
same,TGI,A498 renal,10.4 µM
same,GI50,SK-MEL-28 melanoma,1840 nM
same,TGI,SK-MEL-28 melanoma,6.8 µM
same,GI50,U251 CNS,1890 nM
same,TGI,U251 CNS,11.8 µM
